“Also recorded” adds a separate entry of the source. Starred links: 1 amine or outer side, 2 acyl side, 3 side chain; linkers in the order of their positions; H or OH if unused. Non-standard residues stand in square brackets, D forms with d. Residues, ends and D or L forms follow the SMILES beside them. X1 = O=C(C(Cc1ccc(/N=N/c2ccccc2)cc1)N[*:1])[*:2]
Key:
[1] = Reversible gel-sol transition by light irradiation (test tube); type: physicochemical
Procedure: The compound (P1) was dispersed in a D-MEM buffer solution (4 mM HEPES, containing 1 wt % NaHCO3, pH 8.5) to produce a dispersion liquid including 1.0 wt % of the compound (P1). The dispersion liquid was placed in a test tube to observe the gel-sol transition caused by light irradiation. Incubation after the start of light irradiation was performed at 37° C. in a 5% CO2 atmosphere.
This dispersion liquid was placed in a test tube to observe the changes in gelation and solation caused by light irradiation. After the start of light irradiation, incubation was performed at 37° C. in a 5% CO2 atmosphere.

[2] = Droplet fusion and control by light irradiation
Procedure: A mixed aqueous solution including 5 wt % DEX550k and 5 w % PEG35k was produced in a microtube. Next, the compound (P1) was added to the mixed aqueous solution to be 1 wt % thereof, dissolved, and stirred for 1 minute using a vortex. […] The produced droplets were position-selectively irradiated with 350 nm light for 6 minutes. The droplet dispersion liquid was placed in a transparent cell having a depth of 1 mm and light irradiation was performed using a fluorescence microscope (Olympus IX-73). A U-HGLGPS (brightness: 130 W) was used as the light source for the fluorescence microscope and light was irradiated with a brightness output setting of 25%.
To observe the localization of the compound (P), the compound (P1) was labeled using Cy5. A mixed aqueous solution including 5 wt % dextran (550 kDa; DEX550k) and 5 wt % polyethylene glycol (35 kDa; PEG35k) was produced in a microtube. Next, the Cy5-labeled compound (P1) was added to the mixed aqueous solution to be 1 wt % thereof, dissolved, and stirred for 1 minute using a vortex. […] The droplets were irradiated with 350 nm light for 5 seconds. The droplet dispersion liquid was placed in a transparent cell having a depth of 1 mm and light irradiation was performed using a fluorescence microscope (Olympus IX-73). A U-HGLGPS (brightness: 130 W) was used as the light source for the fluorescence microscope and light was irradiated with a brightness output setting of 25%. Before and after light irradiation, the droplets were observed using a phase-contrast microscope (Olympus IX-73 connected to a phase-contrast light source) and a fluorescence microscope (Olympus IX-73 connected to a fluorescence light source U-HGLGPS).
A mixed aqueous solution including 5 wt % dextran (550 kDa; DEX550k) and 5 wt % polyethylene glycol (35 kDa; PEG35k) was produced in a microtube. Next, the labeled compound (P1) was added to the mixed aqueous solution to be 1 wt % thereof, dissolved, and stirred for 1 minute using a vortex. […] The droplets were subjected to any of the following light irradiation operations (1) to (3). The light irradiation was performed in the same manner as described above. • (1) No light irradiation. • (2) Irradiation with 350 nm light for 5 seconds. • (3) Irradiation with 350 nm light for 5 seconds, followed by irradiation with 550 nm light for 5 seconds.
The droplets were observed under a phase-contrast microscope before and after carrying out the light irradiation operation under the above-described conditions. In (1), an image “before carrying out the light irradiation operation” was taken and then an image “after carrying out the light irradiation operation” was taken within 1 minute. No light irradiation was performed between “before carrying out the light irradiation operation” and “after carrying out the light irradiation operation”. In (2), an image “after carrying out the light irradiation operation” was taken immediately after 5 seconds of irradiation with 350 nm light. In (3), 350 nm light was irradiated for 5 seconds, immediately followed by irradiating 550 nm light for 5 seconds, and an image “after carrying out the light irradiation operation” was taken immediately after the 550 nm light was irradiated for 5 seconds.
A mixed aqueous solution including 5 wt % DEX550k and 5 w % PEG35k was produced in a microtube. Next, the compound (P2) was added to the mixed aqueous solution to be 1 wt % thereof, dissolved, and stirred for 1 minute using a vortex. […] The produced droplets were irradiated with 350 nm light for 5 seconds. The droplet dispersion liquid was placed in a transparent cell having a depth of 1 mm and light irradiation was performed using a fluorescence microscope (Olympus IX-73).

[3] = Photoresponsiveness (UV-vis absorption spectrum after light irradiation); type: physicochemical; details: 1 wt % dispersion in D-MEM with 4 mM HEPES, 25° C.; P1: 350 nm / 450 nm; P3: 540 nm / 450 nm
Procedure: The compound (P1) was dispersed in a D-MEM buffer solution including 4 mM HEPES to produce a dispersion liquid including 1 wt % of the compound (P1). This dispersion liquid was placed in a transparent cell having a depth of 1 mm and irradiated with light using a fluorescence microscope (Olympus IX-73). A U-HGLGPS (brightness: 130 W) was used as the light source for the fluorescence microscope and light was irradiated with a brightness output setting of 25%. The absorption spectrum and circular dichroism (CD) spectrum of the dispersion liquid after light irradiation were measured by ultraviolet-visible light spectroscopy. The measurements were performed at room temperature (25° C.).
This dispersion liquid was irradiated with 450 nm or 550 nm light and the absorption spectrum was analyzed by ultraviolet-visible spectroscopy (UV-vis) (JASCO V-650 spectrophotometer). Measurements were performed at room temperature (25° C.).

[4] = Rheological evaluation (storage modulus G' and loss modulus G'', rotational rheometer); type: physicochemical; details: trans form, 1.0 wt % in D-MEM buffer pH 8.5, incubated 3 days at 37° C. in dark
Procedure: The trans form of the compound (P1) was dispersed in a D-MEM buffer solution (4 mM HEPES, containing 1 wt % NaHCO3, pH 8.5) to produce a dispersion liquid including 1.0 wt % of the compound (P1). This dispersion liquid was incubated for 3 days in a dark place at 37° C. in a 5% CO2 atmosphere. Thereafter, the storage modulus G′ and loss modulus G″ were measured using a rotational rheometer (Malvern Panalytical, Kinexus lab+).
This dispersion liquid was incubated for 3 days in a dark place at 37° C. in a 5% CO2 atmosphere. The storage modulus G′ and loss modulus G″ were then measured using a rotational rheometer (Malvern Panalytical, Kinexus lab+).

[5] = Evaluation of droplet stability (phase-contrast microscope); details: 1 wt % compound, 5 wt % DEX550k, 5 wt % PEG35k
Procedure: A mixed aqueous solution including 5 wt % dextran (550 kDa; DEX550k), 0.002 wt % rhodamine-DEX550k, and 5 wt % polyethylene glycol (35 kDa; PEG35k) was produced in a microtube. Next, the compound (P1) was added to the mixed aqueous solution to be 1 wt % thereof, dissolved, and stirred for 1 minute using a vortex. Due to this, liquid-liquid phase-separated droplets were produced.
Liquid-liquid phase-separated droplets were produced by the same method as in <Droplet Production Example 1>. After production of the droplets, the droplets were left to stand for 24 hours and the state of the droplets was observed using a phase-contrast microscope.
Liquid-liquid phase-separated droplets were produced by the same method as in <Droplet Production Example 1>. After production of the droplets, the droplets were left to stand for 16 days and the state of the droplets was observed using a phase-contrast microscope.

[6] = TEM analysis of dispersion liquid; type: physicochemical; details: 1.0 wt % dispersion, irradiated with 450 nm light
Procedure: This dispersion liquid was incubated for 3 days in a dark place at 37° C. in a 5% CO2 atmosphere. Thereafter, the dispersion liquid was irradiated with 450 nm light and analyzed with a transmission electron microscope (JEOL JEM-1400).
This dispersion liquid was incubated for 3 days in a dark place at 37° C. in a 5% CO2 atmosphere. Thereafter, the dispersion liquid was irradiated with 450 nm or 550 nm light and absorption spectrum analysis was performed by infrared absorption spectroscopy analysis (IR) (JASCO FTIR-6100) and analysis was performed using a transmission electron microscope (JEOL JEM-1400).

[7] = 1 wt % compound, 350 nm light for 5 seconds

| SMILES | state of dispersion liquid at start of light irradiation, cis form ([1]; 1.0 wt % in D-MEM buffer pH 8.5, 0 min) | state of dispersion liquid at start of light irradiation, trans form ([1]; 1.0 wt % in D-MEM buffer pH 8.5, 0 min / before irradiation) | state of trans-form dispersion liquid after 350 nm light ([1]; 1.0 wt %, 350 nm light for 15 minutes, 37° C., 5% CO2) | state of cis-form dispersion liquid after 450 nm light ([1]; 1.0 wt %, 450 nm light for 15 minutes, 37° C., 5% CO2) | change of droplets after 350 nm light [2, 7] | droplet fusion in light irradiated spot ([2]; 1 wt % compound, position-selective 350 nm light for 6 minutes) | change of droplets after 350 nm then 550 nm light ([2]; 1 wt % labeled compound, 350 nm light 5 seconds, then 550 nm light 5 seconds) | change of droplets, no light irradiation ([2]; 1 wt % labeled compound, operation (1) no light irradiation) | state of droplet dispersion liquid before irradiation with 350 nm light ([2]; Cy5-labeled compound, 1 wt %) | state of droplet dispersion liquid after irradiation with 350 nm light ([2]; Cy5-labeled compound, 1 wt %, 350 nm light for 5 seconds) | photoisomerization of azobenzene structure on light irradiation [3] | gel formation (G' versus G'') [4] | time for which droplets were stably maintained ([5]; left to stand 24 hours) | time after which droplets were still stably maintained ([5]; left to stand 16 days) | structure in TEM image, trans form [6] |
| --- | --- | --- | --- | --- | --- | --- | --- | --- | --- | --- | --- | --- | --- | --- | --- |
| CSCCC(NC(=O)C(CCCNC(=N)N)NC(=O)C(C)NC(=O)C(CC(=O)O)NC(=O)C(Cc1ccc(/N=N/c2ccccc2)cc1)NC(=O)C(CCCNC(=N)N)NC(C)=O)C(=O)NC(CCCNC(=N)N)C(N)=O (stereo not shown) [Compound (P1)] (Ac-R[X1]DARMR-NH2; configuration not given here) | underwent solation | underwent gelation | underwent solation | underwent gelation | droplets which were larger than before the light irradiation were observed; also recorded: the size of the droplets significantly increased | a larger droplet was formed | the number of droplets decreased and the size of the droplets increased | no change was seen in the size of the droplets | gel state | sol state | reversibly isomerized from the trans form to the cis form and from the cis form to the trans form | a gel was formed | ≥ 24 h | ≥ 16 days | formed a structure in a fibrous state |
| CSCCC(NC(=O)C(CCCNC(=N)N)NC(C)=O)C(=O)NC(CC(=O)O)C(=O)NC(C)C(=O)NC(CCCNC(=N)N)C(=O)NC(Cc1ccc(/N=N/c2ccccc2)cc1)C(=O)NC(CCCNC(=N)N)C(N)=O (stereo not shown) [Compound (P2)] (Ac-RMDAR[X1]R-NH2; configuration not given here) | – | – | – | – | larger droplets were formed | – | – | – | – | – | – | – | – | – | – |
